Experimental findings from paper PMC8119889, “Computational Identification of a Putative Allosteric Binding Pocket in TMPRSS2” (Frontiers in Molecular Biosciences, 2021) are described below.

Structures are written as SMILES.

The experiment deals with T1, TMPRSS2 (transmembrane serine protease 2) (Homo sapiens, UniProt O15393).
T1 construct: Recombinant human TMPRSS2 (106-492aa, 6xHisTag)
The experiment is described as follows: microscale thermophoresis (His-tag RED-tris-NTA labelled protein, […]). Type of experiment: binding.

T1 sequence (O15393 106-492): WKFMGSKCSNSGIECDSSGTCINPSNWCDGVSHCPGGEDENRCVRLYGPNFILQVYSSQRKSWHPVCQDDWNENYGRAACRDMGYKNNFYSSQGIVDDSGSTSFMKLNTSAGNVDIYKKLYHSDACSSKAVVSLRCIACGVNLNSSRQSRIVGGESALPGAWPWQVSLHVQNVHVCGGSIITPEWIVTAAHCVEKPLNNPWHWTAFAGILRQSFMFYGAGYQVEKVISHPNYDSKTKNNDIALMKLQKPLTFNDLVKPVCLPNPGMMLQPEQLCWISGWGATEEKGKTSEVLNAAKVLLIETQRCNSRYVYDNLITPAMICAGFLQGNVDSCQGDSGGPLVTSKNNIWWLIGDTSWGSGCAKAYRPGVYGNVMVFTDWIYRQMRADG

`CN(Cc1cc(Br)cc(Br)c1N)C1CCCCC1` [BH, bromhexine] showed a Kd of 24 ± 13 µM.
